Results taken from patent publication US20180221343A1, “PHARMACEUTICAL COMPOSITION FOR PREVENTING OR TREATING MACULAR DEGENERATION” (KOREA RESEARCH INSTITUTE OF CHEMICAL TECHNOLOGY, priority 2011, published 2018).

Tests used:
[1] = system: rat corneal epithelial wound; assay: Corneal Wound Healing Assay (2); assay type: in vivo, SD rats; conditions: topical 3 and 6 mg/ml every 6 hour; observed at 0 and 18 hours
Procedure: (§1) SD rats (male, 8 weeks, 250 g) were used. Animal study protocol was in accordance with the Association for Research in Vision and Ophthalmology Statement for the Use of Animals in Ophthalmic and Visual Research. All animals were housed in individual cages and maintained under standard conditions (12 hour light-dark cycle).
(§2) Rats were anesthetized by Zoletil® (50 mg/kg, Tiletamina 25 mg, Zolazepam 25 mg; Vibrac, Carros, France) and Rompun® (10 mg/kg, Bayer, France). The cornea was anesthetized by topical 0.5% proparacaine (Alcaine®; Alcon, Fort Worth, Tex., USA). After applying 0.5% proparacaine drops, 5.0 mm Trephine Blade® (Katena, Denville, N.J., USA) was placed and fixed firmly on the corneal surface. One drop of 20% ethanol were put into the tephine well and left in place for 30 seconds, then absorbed with a dry cellulose sponge (Merocel®; Medtronic Solan, Jacksonville, Fla., USA) and irrigated with normal saline. And the epithelium was removed in 6.0 mm diameter.
The drugs were each topically applied in 3 mg/ml (0.3%) and 6 mg/ml (0.6%) concentrations (in 5% DMSO, 10% PEG (Mw 400) and 85% saline (0.9% NaCl)) in every 6 hour, respectively.
(§3) The corneal wounds were captured by digital camera under cobalt blue light and the defect area was analyzed by Image J software (Ver 4.1, NIH). The significance between Vehicle and each group was analyzed by paired T-test, and the significance of the test was analyzed by One Way ANOVA analysis.

[2] = system: rat corneal epithelial wound; assay: Corneal Wound Healing Assay (1); assay type: in vivo, SD rats; conditions: topical 10 mg/ml (1%) every 6 hour; observed at 0 and 18 hours
Procedure: as §1
as §2, with “2. Corneal Epithelium Removal Rats” for “Rats”
The drugs were each topically applied in 10 mg/ml (1%) concentration (in 5% DMSO, 10% PEG (Mw 400) and 85% saline (0.9% NaCl)) in every 6 hour.
as §3

VEGF receptor 2 (FLK-1) = assay: Expression of VEGF receptor 2 (FLK-1) in corneal tissue by RT-PCR; assay type: in vivo, rats; conditions: subconjunctival injection 20 μl; KR 0.3 mg/ml, Avastin 10 mg/ml
Procedure: The tests were performed for confirming corneal angiogenesis as a marker. To a Trizole™ solution (200 μl), were added each corneal tissue obtained from the rats of Example 1. Total RNAs were isolated and then cDNAs were prepared by using a reverse transcriptase. Each cDNA (5 μl) was mixed with the primer set of FLK-1 and then PCR amplication was performed in a thermocycler under the following conditions; denaturation at 94° C. for 5 minutes, and then 35 cycles of denaturation at 94° C. for 20 seconds, annealing at 58° C. for 1 minute, and extension at 72° C. for 25 seconds. Each PCR product was loaded on 1% agarose gel; and the resulting ethidium bromide fluorescent bands were identified.

corneal angiogenesis [3] = assay: Inhibitory effects against corneal angiogenesis in animal models having corneal damage (subconjunctival injection); assay type: in vivo, Sprague Dawley rats; conditions: subconjunctival injection 20 μl; KR 0.3 mg/ml, Avastin 10 mg/ml; 1 week after administration
Procedure: (§4) The tests were performed by using Sprague Dawley rats (8 weeks old, male) as animals having corneal damage (15 rats for the experiment group; and 1 rat for normal group, respectively). The corneal damage was induced by applying a cotton swab coated with silver nitrate to the surface of the rat corneas, as as to induce a damage having a diameter of 2 mm in the central cornea. On the third day after inducing the corneal damages, we confirmed the establishment of corneal angiogenesis-inducing models and then subconjunctivally injected a solution (20 μl) prepared by dissolving the compound of Preparation Example 23, i.e., (2R,3R,4S)-6-amino-4-[N-(4-chlorophenyl)-N-(1H-imidazol-2-ylmethyl)amino]-3-hydroxy-2-methyl-2-dimethoxymethyl-3,4-dihydro-2H-1-benzopyran (KR-31831) in phosphate buffered saline (PBS) containing 10% PEG 400, in the concentration of 0.3 mg/ml. In case of the control group, the PBS (20 μl) containing 10% PEG 400 was subconjunctivally injected. As a positive control, a solution (20 μl) prepared by dissolving Avastin (used as an angiogenesis inhibitor) in PBS in the concentration of 10 mg/ml was subconjunctivally injected. The evaluations quantifying the photographs of FIG. 1 were performed by using the Image J (NIH, USA) program and the results thereof were shown in FIG. 2.

retinal angiogenesis = assay: Laser-induced retinal damage model, retinal angiogenesis by dextran-FITC fluorescence; assay type: in vivo, Brown Norway rats; conditions: Avastin 2.5 mg/ml, 10 μl into the vitreous humor; 2 weeks after administration
Procedure: The tests were performed by using Brown Norway rats (8 weeks old, male) as animals having retinal damage (15 rats for the experiment group; and 1 rat for normal group, respectively). The retinal Bruch's membrane of each Brown Norway rat was damaged using a Zeiss 532s laser at the intensity of […], 30 ms. On the third day after the laser-damaging, the drug was administered into the vitreous humor in order to observe the retinal vessels. The compound of the present invention, i.e., (2R,3R,4S)-6-amino-4-[N-(4-chlorophenyl)-N-(1H-imidazol-2-ylmethyl)amino]-3-hydroxy-2-methyl-2-dimethoxymethyl-3,4-dihydro-2H-1-benzopyran was administered with the solutions (10 μl of each solution) obtained by dissolving in PBS containing 30% PEG 400 and 10% DMSO, in the concentrations of 0.1 mg/ml and 0.3 mg/ml. Avastin was administered with the solution (10 μl) obtained by dissolving in PBS in the concentration of 2.5 mg/ml. In case of the control group, the PBS (10 μl) was administered. In addition, (2R,3R,4S)-6-amino-4-[N-(4-chlorophenyl)-N-(1H-imidazol-2-ylmethyl)amino]-3-hydroxy-2-methyl-2-dimethoxymethyl-3,4-dihydro-2H-1-benzopyran was intraperitoneally administered with the solution obtained by dissolving in PBS containing 30% PEG 400 and 10% DMSO, in the dose of 25 mg/kg. 2 weeks after the drug administrations, dextran-FITC was injected into the left ventricle in the dose of 25 mg/kg, followed by enucleating the eye after 5 minutes therefrom; and then fixing in a 10% formalin solution. The cornea and the eye lens were removed from the fixed eye, which was then observed under a fluorescence microscope. Angiogenesis was identified by the intensity and leakage of dextran-FITC in the laser-induced damage site; and the results thereof were shown in FIG. 7. The evaluations quantifying the photographs of FIG. 7 were performed by using the Image J (NIH, USA) program and the results thereof were shown in FIG. 8.

corneal angiogenesis [4] = assay: Inhibitory effects against corneal angiogenesis, subconjunctival injection and eye drop-administration; assay type: in vivo, Sprague Dawley rats; conditions: subconjunctival injection 20 μl plus eye drop 50 μl; KR 0.3 mg/ml, Avastin 10 mg/ml
Procedure: as §4, with “In case of the control group, the PBS (20 μl) containing 10% PEG 400 was subconjunctivally injected. As a positive control, a solution (20 μl) prepared by dissolving Avastin (used as an angiogenesis inhibitor) in PBS in the concentration of 10 mg/ml was subconjunctivally injected.” left out
Except for performing both the subconjunctival injection and the eye drop-administration of (2R,3R,4S)-6-amino-4-[N-(4-chlorophenyl)-N-(1H-imidazol-2-ylmethyl)amino]-3-hydroxy-2-methyl-2-dimethoxymethyl-3,4-dihydro-2H-1-benzopyran and Avastin, the inhibitory effects against angiogenesis were evaluated according to the same manners as in Example 1. […]

inhibitory effect on normal healing of rat corneal epithelial wound [1]	inhibitory effect on normal healing of rat corneal epithelial wound [2]	Molecule	rate (%) of wound healing compared to vehicle control and KR-31831 (rank) [2]	FLK-1 expression in the cornea (control group 100%) (VEGF receptor 2 (FLK-1))	corneal angiogenesis in comparison with the corneal angiogenesis (100%) of the control group (corneal angiogenesis [3])	fluorescence intensity at laser-induced damage site (surrounding vessels = 100) (retinal angiogenesis)	angiogenesis in comparison with the angiogenesis (100%) of the control group (corneal angiogenesis [4])
showed inhibitory effect	showed inhibitory effect	Cc1cc(-c2cc(OC(=O)c3ccccc3)ccc2Cl)cc2nnc(Nc3ccc(OCCN4CCCC4)cc3)nc12 [TG100801]	the lowest rate (%) of wound healing				
showed inhibitory effect	showed inhibitory effect	CNC1(C)C2CCC(C2)C1(C)C (stereo not shown) [ATG-003]	the second lowest rate (%) of wound healing				
		Avastin: protein drug used in anti-VEGF antibody injection therapy; used as an angiogenesis inhibitor, positive control		about 59%	66.4±10.6%	46±3	29.3±8.6%
showed inhibitory effect	showed inhibitory effect	Cc1ccc(Nc2nccc(N(C)c3ccc4c(C)n(C)nc4c3)n2)cc1S(N)(=O)=O [Pazopanib]	the least lowest rate (%) of wound healing among the three but lower than the control				
